# Where a SMILES comes first, the peptide text is derived from it.
# Biological target: purified HLA-DRB1*0101 (Homo sapiens, UniProt P01903+P01911, A100R/D57E/F55L/F60I/F76Y/I96L/L162R/M171V/P40L/Q125E/R42F/V115G/Y59C)
# Assay: biochemical
# Assay type: binding
row,SMILES,IC50
1,CC(C)C[C@H](NC(=O)[C@H](CCC(=O)O)NC(=O)[C@H](CCCNC(=N)N)NC(=O)[C@H](CCCNC(=N)N)NC(=O)[C@H](CC(C)C)NC(=O)[C@H](C)NC(=O)[C@H](CCC(N)=O)NC(=O)[C@@H](NC(=O)[C@H](Cc1c[nH]c2ccccc12)NC(=O)[C@H](CCC(N)=O)NC(=O)[C@H](Cc1ccccc1)NC(=O)[C@H](CO)NC(=O)[C@H](CCCCN)NC(=O)[C@@H](NC(=O)[C@@H](N)CCC(=O)O)C(C)C)[C@@H](C)O)C(=O)O [LCMV NP6-20],49 nM
2,CC[C@H](C)[C@H](NC(=O)[C@H](CS)NC(=O)[C@H](CC(=O)O)NC(=O)[C@@H](N)CCSC)C(=O)N[C@H](C(=O)N[C@@H](Cc1ccccc1)C(=O)N[C@@H](CCC(=O)O)C(=O)N[C@@H](CO)C(=O)N[C@@H](C)C(=O)N[C@@H](CO)C(=O)N[C@@H](CCCCN)C(=O)N[C@@H](C)C(=O)N[C@@H](CCCNC(=N)N)C(=O)N[C@@H](CC(C)C)C(=O)N1CCC[C@H]1C(=O)O)[C@@H](C)CC [LCMV NP521-535],4.4 nM
3,CC[C@H](C)[C@H](NC(=O)[C@H](CC(C)C)NC(=O)[C@H](Cc1ccccc1)NC(=O)[C@@H](NC(=O)[C@H](CC(N)=O)NC(=O)[C@@H](NC(=O)CNC(=O)CNC(=O)[C@H](CCCCN)NC(=O)[C@H](CCSC)NC(=O)[C@H](Cc1ccc(O)cc1)NC(=O)[C@H](Cc1ccc(O)cc1)NC(=O)[C@H](Cc1ccccc1)NC(=O)[C@H](CO)NC(=O)[C@@H](N)CC(N)=O)C(C)C)[C@@H](C)O)C(=O)O [MACV GPC96-110],0.21 nM
4,CC(C)C[C@H](NC(=O)[C@H](CO)NC(=O)[C@H](CCCNC(=N)N)NC(=O)[C@H](CCC(=O)O)NC(=O)[C@H](Cc1ccccc1)NC(=O)[C@H](CC(N)=O)NC(=O)[C@H](CC(C)C)NC(=O)[C@H](Cc1c[nH]cn1)NC(=O)[C@@H](NC(=O)[C@H](CCCCN)NC(=O)[C@@H](N)CO)[C@@H](C)O)C(=O)N[C@@H](CCCCN)C(=O)N[C@@H](C)C(=O)N[C@@H](Cc1ccccc1)C(=O)N[C@@H](Cc1ccccc1)C(=O)O [MACV GPC251-265],1.7 nM
5,CC[C@H](C)[C@H](NC(=O)CNC(=O)[C@@H](NC(=O)[C@H](CC(C)C)NC(=O)[C@H](Cc1c[nH]cn1)NC(=O)[C@H](CC(C)C)NC(=O)[C@H](Cc1ccccc1)NC(=O)[C@H](CC(C)C)NC(=O)[C@H](CO)NC(=O)[C@H](C)N)C(C)C)C(=O)N1CCC[C@H]1C(=O)N[C@H](C(=O)N[C@@H](Cc1c[nH]cn1)C(=O)N[C@@H](CCCNC(=N)N)C(=O)N[C@@H](Cc1c[nH]cn1)C(=O)O)[C@@H](C)O [MACV GPC446-460],0.13 nM
6,CC[C@H](C)[C@H](NC(=O)[C@H](CC(C)C)NC(=O)[C@H](CCCCN)NC(=O)[C@@H](NC(=O)[C@H](C)NC(=O)[C@H](CCC(=O)O)NC(=O)[C@H](CC(C)C)NC(=O)[C@@H](NC(=O)[C@H](CC(=O)O)NC(=O)[C@H](CC(C)C)NC(=O)[C@@H](NC(=O)[C@H](CCCNC(=N)N)NC(=O)[C@@H](N)CC(=O)O)C(C)C)[C@@H](C)CC)C(C)C)C(=O)N[C@@H](CCCNC(=N)N)C(=O)N[C@@H](CCCCN)C(=O)O [MACV L391-405] (H-DRVLDILEAVKLIRK-OH),0.48 nM
7,CC[C@H](C)[C@H](NC(=O)[C@H](Cc1c[nH]cn1)NC(=O)[C@H](Cc1c[nH]cn1)NC(=O)[C@@H](NC(=O)[C@H](CCC(N)=O)NC(=O)[C@H](CC(N)=O)NC(=O)[C@H](C)NC(=O)[C@H](Cc1ccccc1)NC(=O)[C@H](C)NC(=O)[C@H](CCSC)NC(=O)[C@H](CC(C)C)NC(=O)[C@H](Cc1ccccc1)NC(=O)[C@H](Cc1ccc(O)cc1)NC(=O)[C@@H](N)CCCNC(=N)N)[C@@H](C)CC)C(=O)N[C@@H](CC(=O)O)C(=O)O [MACV L636-650],0.24 nM
8,CC[C@H](C)[C@H](NC(=O)[C@H](CC(C)C)NC(=O)[C@H](Cc1ccc(O)cc1)NC(=O)[C@@H](N)CC(=O)O)C(=O)N[C@@H](CC(C)C)C(=O)N[C@@H](CCCCN)C(=O)N[C@@H](CC(N)=O)C(=O)N[C@@H](CC(C)C)C(=O)N[C@H](C(=O)NCC(=O)N[C@@H](CC(C)C)C(=O)N[C@H](C(=O)N[C@@H](CO)C(=O)N[C@@H](C)C(=O)NCC(=O)O)C(C)C)[C@@H](C)O [MACV L866-880],0.21 nM
9,CC[C@H](C)[C@H](NC(=O)[C@H](CC(=O)O)NC(=O)[C@H](CC(N)=O)NC(=O)[C@H](Cc1ccccc1)NC(=O)[C@@H](NC(=O)[C@H](CCCCN)NC(=O)[C@H](CCCNC(=N)N)NC(=O)[C@H](C)NC(=O)[C@H](CS)NC(=O)[C@H](CC(N)=O)NC(=O)[C@H](CCCNC(=N)N)NC(=O)[C@@H](NC(=O)[C@H](Cc1ccccc1)NC(=O)[C@H](CO)NC(=O)[C@@H](N)[C@@H](C)O)[C@@H](C)CC)C(C)C)C(=O)O [MACV L1491-1505],0.11 nM
10,CC(C)[C@H](NC(=O)[C@H](C)NC(=O)[C@H](Cc1c[nH]c2ccccc12)NC(=O)[C@H](Cc1ccccc1)NC(=O)[C@H](Cc1ccccc1)NC(=O)[C@H](CC(N)=O)NC(=O)[C@H](CCC(N)=O)NC(=O)[C@H](CC(N)=O)NC(=O)[C@@H](N)CC(N)=O)C(=O)N[C@@H](CCCCN)C(=O)N1CCC[C@H]1C(=O)N[C@@H](CCCCN)C(=O)N[C@H](C(=O)N[C@H](C(=O)N[C@@H](CCCNC(=N)N)C(=O)O)C(C)C)C(C)C [MACV L1711-1725],1.7 nM
11,CC(C)C[C@H](NC(=O)CNC(=O)[C@H](CC(C)C)NC(=O)[C@H](CO)NC(=O)[C@@H](NC(=O)[C@H](CC(C)C)NC(=O)[C@H](C)NC(=O)[C@H](CCC(N)=O)NC(=O)[C@@H](NC(=O)[C@@H](NC(=O)[C@H](CO)NC(=O)[C@@H](N)CC(N)=O)C(C)C)C(C)C)[C@@H](C)O)C(=O)N[C@@H](CC(C)C)C(=O)N[C@@H](Cc1ccc(O)cc1)C(=O)N[C@H](C(=O)O)[C@@H](C)O [MACV NP191-205],0.78 nM
12,CC(C)C[C@H](NC(=O)[C@H](CO)NC(=O)[C@@H]1CCCN1C(=O)[C@@H]1CCCN1C(=O)[C@H](C)NC(=O)[C@@H](NC(=O)[C@H](CCCNC(=N)N)NC(=O)[C@H](CCCNC(=N)N)NC(=O)[C@H](Cc1ccccc1)NC(=O)[C@H](CCC(=O)O)NC(=O)[C@H](C)NC(=O)[C@H](CO)NC(=O)[C@@H]1CCCN1)[C@@H](C)O)C(=O)N[C@@H](Cc1ccc(O)cc1)C(=O)NCC(=O)O [MACV Z21-35] (H-PSAEFRRTAPPSLYG-OH),2 nM
13,CC[C@H](C)[C@H](NC(=O)[C@H](CC(C)C)NC(=O)[C@H](CO)NC(=O)[C@@H](N)C(C)C)C(=O)N[C@@H](C)C(=O)N[C@@H](C)C(=O)N[C@@H](CC(C)C)C(=O)N[C@@H](CCCCN)C(=O)NCC(=O)N[C@@H](CCSC)C(=O)N[C@H](C(=O)N[C@@H](CC(N)=O)C(=O)N[C@@H](CC(C)C)C(=O)N[C@@H](Cc1c[nH]c2ccccc12)C(=O)N[C@@H](CCCCN)C(=O)O)[C@@H](C)CC [SABV GPC26-40] (H-VSLIAALKGMINLWK-OH),0.47 nM
14,CC(C)C[C@H](NC(=O)[C@H](Cc1ccccc1)NC(=O)[C@H](CC(C)C)NC(=O)[C@@H](NC(=O)[C@@H](NC(=O)[C@@H](NC(=O)[C@@H](N)Cc1ccccc1)[C@@H](C)O)[C@@H](C)O)[C@@H](C)O)C(=O)N[C@@H](Cc1c[nH]cn1)C(=O)N[C@@H](CC(C)C)C(=O)N[C@H](C(=O)NCC(=O)N[C@@H](Cc1ccccc1)C(=O)N1CCC[C@H]1C(=O)N[C@H](C(=O)N[C@@H](Cc1c[nH]cn1)C(=O)O)[C@@H](C)O)C(C)C [SABV GPC436-450] (H-FTTTLFLHLVGFPTH-OH),0.92 nM

# Reference: paper PMC2880318 (Immunome Research, 2010)
